Patent US10551389B2, “Target binding molecules identified by kinetic target-guided synthesis” (UNIVERSITY OF SOUTH FLORIDA, priority 2013, dated 2020)

Experiments:
[1] = target: Mcl-1 (Homo sapiens, UniProt Q07820); assay: Inhibition of Mcl-1 (disruption of Mcl-1/Bim interaction); type: binding; conditions: for inhibition at 25 µM / % Inhibition (25 μM) Mcl-1: compound at 25 μM; for inhibition at 50 µM / % Inhibition (50 μM) Mcl-1: compound at 50 μM
[2] = target: Bcl-XL (Homo sapiens, UniProt Q07817); assay: Inhibition of Bcl-XL (disruption of Bcl-XL/Bim interaction); type: binding; conditions: for inhibition at 25 µM / % Inhibition (25 μM) Bcl-XL: compound at 25 μM; for inhibition at 50 µM / % Inhibition (50 μM) Bcl-XL: compound at 50 μM
Sequence of Bcl-XL (Q07817 whole entry, species assumed): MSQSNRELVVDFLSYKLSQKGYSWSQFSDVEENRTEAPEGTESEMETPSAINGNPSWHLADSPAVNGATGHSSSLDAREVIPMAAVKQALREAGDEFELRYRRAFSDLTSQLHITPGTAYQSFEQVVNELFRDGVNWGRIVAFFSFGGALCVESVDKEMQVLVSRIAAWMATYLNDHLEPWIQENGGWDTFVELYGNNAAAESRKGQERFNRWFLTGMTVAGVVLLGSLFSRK

Sequence of Mcl-1 (Q07820 whole entry, species assumed): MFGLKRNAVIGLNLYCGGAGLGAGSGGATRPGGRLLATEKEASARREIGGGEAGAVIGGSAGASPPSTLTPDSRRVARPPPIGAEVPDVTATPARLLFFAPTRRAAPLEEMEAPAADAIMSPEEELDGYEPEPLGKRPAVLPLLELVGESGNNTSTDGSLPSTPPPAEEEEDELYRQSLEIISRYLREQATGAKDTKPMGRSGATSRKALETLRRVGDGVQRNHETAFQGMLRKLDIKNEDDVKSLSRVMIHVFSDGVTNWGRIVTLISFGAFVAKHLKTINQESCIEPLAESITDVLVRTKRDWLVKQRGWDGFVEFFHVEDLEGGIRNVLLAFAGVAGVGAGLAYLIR

Row | SMILES | IC50 [1] | inhibition at 50 µM [1] | inhibition at 50 µM [2] | % Inhibition (25 μM) Mcl-1 [1] | % Inhibition (50 μM) Mcl-1 [1] | % Inhibition (25 μM) Bcl-XL [2] | % Inhibition (50 μM) Bcl-XL [2] | inhibition at 25 µM [1] | IC50 [2] | inhibition at 25 µM [2]
1 | COc1cc(OC)cc(C(=O)NS(=O)(=O)c2ccc(CN(CCSc3ccccc3)Cc3ccc(S(=O)(=O)N=[N+]=[N-])cc3)cc2)c1 [SZ9TA5] | 8.1 µM | > 99% | 60.3% | – | – | – | – | 50% | 36 µM | 8.6%
2 | O=C(NS(=O)(=O)c1ccc(CN(CCSc2ccccc2)Cc2ccc3c(c2)OCO3)cc1)c1ccc2c(ccn2Cc2ccc(C(F)(F)F)cc2C(F)(F)F)c1 [SZ31TA30] | – | – | – | 32.4% | 30.6% | <2.0% | <2.0% | – | – | –
3 | COc1cccc(CN(CCSc2ccccc2)Cc2ccc(S(=O)(=O)NC(=O)c3sc(-c4ccccc4)nc3C)cc2)c1 [SZ17TA3] | 8.6 µM | 100% | 39.6% | – | – | – | – | – | – | –
4 | NS(=O)(=O)c1ccc(CN(CCSc2ccccc2)Cc2ccc(S(=O)(=O)NC(=O)Cn3c4ccccc4c4ccccc43)cc2)cc1 [SZ10TA15] | – | – | – | 35.2% | 37.4% | 9.4% | <2.0% | – | – | –

More lines, main results first:

Row | IC50 [1] | inhibition at 50 µM [1] | inhibition at 50 µM [2] | % Inhibition (25 μM) Mcl-1 [1] | % Inhibition (50 μM) Mcl-1 [1] | % Inhibition (25 μM) Bcl-XL [2] | % Inhibition (50 μM) Bcl-XL [2] | SMILES | inhibition at 25 µM [1] | IC50 [2] | inhibition at 25 µM [2]
5 | 16.9 µM | 93.9% | 73% | – | – | – | – | CC1(C)CCN(c2ccc(C(=O)NS(=O)(=O)c3ccc4ccc(S(=O)(=O)NCCSc5ccccc5)cc4c3)cc2)CC1 [SZ7TA2] | 49.6% | 28.6 µM | 15.5%
6 | – | – | – | 42.8% | 60.5% | 9.7% | <2.0% | O=C(NS(=O)(=O)CCN(CCSc1ccccc1)Cc1ccc2c(c1)OCO2)c1ccc2c(ccn2Cc2ccc(C(F)(F)F)cc2C(F)(F)F)c1 [SZ28TA30] | – | – | –
7 | 9.7 µM | – | 53.4% | – | – | – | – | O=C(NS(=O)(=O)c1ccc(CN(CCSc2ccccc2)Cc2c(F)cccc2Cl)cc1)c1ccccc1 [SZ15TA1] | – | – | –
8 | – | – | – | 53.1% | 63.6% | 8.5% | <2.0% | CC(C)(C)c1ccc(-c2ccc(S(=O)(=O)NC(=O)c3ccc4c(ccn4Cc4ccc(C(F)(F)F)cc4C(F)(F)F)c3)cc2)cc1 [SZ11TA30] | – | – | –
